Data reported in US20080145313A1, “Compositions and Methods for the Treatment and Prevention of Neoplastic Disorders” (Genesis Research & Development Corporation Limited, priority 2006, published 2008).

tested on: A549 cells; test: Growth inhibition of siRNA-transfected A549 cells, SYBR Green I DNA content; type: cell-based, human; details: 10 nM siRNA; DNA content 96 hours after transfection
Method: A549 cells (human lung cancer cell line; ATCC No. CCL-185), SK-MeI-5 cells (human melanoma cell line; ATCC No. HTB-70), MCF-7 cells (human adenocarcinoma cell line; ATCC No. HTB-22), HCT-116 cells (colorectal carcinoma; ATCC CCL-247) and HCT-116 p53 null cells (derived from ATCC No. CCL-247; Bunz et al., Science 282:1497-1501, 1998) were cultured in RPMI 1640 medium with 10% v/v heat-inactivated fetal calf serum (FCS). Cells were seeded at a density of 5×10^4 cells/cm^2 in multi-well tissue culture plates. Sequences of Stealth™ siRNA duplexes (Invitrogen) targeting human ribonucleotide reductase subunit 1 (SEQ ID NO: 22) and subunit 2 (SEQ ID NO; 38) are given in SEQ ID NO: 4830-4832 (DNA), and SEQ ID NO: 5136-5138 (RNA) for RRM1, and SEQ ID NO: 5306-5308 (DNA), and SEQ ID NO: 5303-5305 (RNA) for RRM2. siRNAs were transfected at different concentrations into cells using Lipofectamine™ RNAiMAX transfection reagent (Invitrogen). Non-specific siRNA (SEQ ID NO: 4804 and 4805 (DNA), and SEQ ID NO: 5301 and 5302 (RNA)) were used as controls. The cellular DNA content was measured using a SYBR Green I-based fluorometric assay at 24, 48, 72 and 96 hours after transfection (120 hours for the MCF-7 cells), as follows. At the indicated time points following reverse transfection, cells were harvested and frozen at −80° C. overnight. Cells were thawed and cell lysis buffer (phosphate-buffered saline (PBS) containing 1% Triton X-100, pH 7) and SYBR Green I (1:10^5 V/V; Invitrogen) was added to the wells and incubated overnight in the dark at 4° C.
The following day, cell lysates were mixed thoroughly, and DNA fluorescence was measured with a Wallac Victor^2 plate reader (Turku, Finland) set at an excitation frequency of 485 nm and measuring emission at 535 nm.
To determine the duration of the knock-down effect of RRM1-targeting siRNA, A549 cells were reverse transfected with 1 or 10 nM RRM1-3 (SEQ ID NO: 4832 (DNA, and SEQ ID NO: 5138 (RNA)) or control siRNA (SEQ ID NO: 4804 (DNA), and SEQ ID NO: 5301 (RNA)), and growth followed over time. Growth inhibition was measured daily as described above for up to ten days. RRM1-3-mediated RRM1 silencing inhibited growth for at least 10 days post-transfection at both 1 and 10 nM (FIG. 11).
siRNA-mediated inhibition of cancer cell growth was determined in A549 cells as follows. A549 cells (human lung cancer cell line; ATCC No. CCL-185) were cultured in RPMI 1640 medium with 10% v/v heat-inactivated fetal calf serum. Cells were seeded at a density of 5×10^3 cells/cm^2 in multi-well tissue culture plates. Stealth™ siRNA duplexes (Invitrogen) targeting genes involved in cancer energy and metabolism pathways and listed in Table 9, were transfected at 10 nM into cells using Lipofectamine™ RNAiMAX transfection reagent (Invitrogen). Non-specific siRNA (SEQ ID NO: 4804 and 4805 (DNA), and SEQ ID NO: 5301 and 5302 (RNA)) were used as controls. The cellular DNA content was measured using a SYBR Green I-based fluorometric assay at 96 hours after transfection. The cells were harvested and frozen at −80° C. overnight. Cells were thawed and cell lysis buffer (phosphate-buffered saline (PBS) containing 1% Triton X-100, pH 7) and SYBR Green I (1:10^5 v/v; Invitrogen) was added to the wells and incubated overnight in the dark at 4° C. The following day, cell lysates were mixed thoroughly, and DNA fluorescence was measured with a Wallac Victor^2 plate reader (Turku, Finland) set at an excitation frequency of 485 nm and measuring emission at 535 nm.
Three different siRNAs were tested for each target gene. The average fluorescence units from three replicate wells, representing the amount of DNA per well, were used to determine the effect on growth inhibition. The results are given in Table 10 (energy and metabolism gene targets) and Table 11 (transporter gene targets).
siRNA-mediated RNAi was also determined on a panel of different cell lines. […]

Substance	Growth Inhibition in A549 cells
SEQ ID NO: 4996: siRNA targeting DGUOK (chain 1 CCTGCACTGCCCAAAGTCTTGGAAA; chain 2 CCUGCACUGCCCAAAGUCUUGGAAA; chemistry not given here; one strand in two spellings)	− (no growth inhibition with any siRNA)
SEQ ID NO: 4843: siRNA targeting NADSYN (chain 1 ATGAGCTGCAAACAGAGGGCTCTTC; chain 2 AUGAGCUGCAAACAGAGGGCUCUUC; chemistry not given here; one strand in two spellings)	− (no growth inhibition with any siRNA)
SEQ ID NO: 4999: siRNA targeting UMPS (chain 1 TGGAAACTGTTGAGGTTCTTCAGAA; chain 2 UGGAAACUGUUGAGGUUCUUCAGAA; chemistry not given here; one strand in two spellings)	+ (inhibits by at least 50%)
SEQ ID NO: 4815: siRNA targeting LDHA/5 (chain 1 ATTAAGACGGCTTTCTCCCTCTTGC; chain 2 AUUAAGACGGCUUUCUCCCUCUUGC; chemistry not given here; one strand in two spellings)	− (no growth inhibition with any siRNA)
SEQ ID NO: 4842: siRNA targeting NADSYN (chain 1 TAGCTGATCTGGTTCACGATGGTGC; chain 2 UAGCUGAUCUGGUUCACGAUGGUGC; chemistry not given here; one strand in two spellings)	+ (inhibits by at least 50%)
SEQ ID NO: 4846: siRNA targeting FLAD1 (chain 1 TGATGTGTATCCTCGGTCATACAGG; chain 2 UGAUGUGUAUCCUCGGUCAUACAGG; chemistry not given here; one strand in two spellings)	− (no growth inhibition with any siRNA)
SEQ ID NO: 4877: siRNA targeting CTPS (chain 1 AGCACCTGCATACAACCAGATCTGG; chain 2 AGCACCUGCAUACAACCAGAUCUGG; Both strands are one antisense strand in DNA/RNA notation, chemistry not given here, further chemistry not given here; one strand in two spellings)	+ (inhibits by at least 50%)
SEQ ID NO: 4816: siRNA targeting LDHA/5 (chain 1 AAATATGTTCACGTTACGCTGGACC; chain 2 AAAUAUGUUCACGUUACGCUGGACC; chemistry not given here; one strand in two spellings)	+ (inhibits by at least 50%)
SEQ ID NO: 4829: siRNA targeting CAD (chain 1 AACTGTGTCAATCTGTTTCACTGCT; chain 2 AACUGUGUCAAUCUGUUUCACUGCU; chemistry not given here; one strand in two spellings)	+ (inhibits by at least 50%)
SEQ ID NO: 4820: siRNA targeting PFKL (chain 1 TAGTCTCTGAGATCTTACCTTCCGC; chain 2 UAGUCUCUGAGAUCUUACCUUCCGC; chemistry not given here; one strand in two spellings)	− (no growth inhibition with any siRNA)
SEQ ID NO: 4818: siRNA targeting PFKL (chain 1 AATGTCTGTCTTCATCTTCTCCGTC; chain 2 AAUGUCUGUCUUCAUCUUCUCCGUC; chemistry not given here; one strand in two spellings)	− (no growth inhibition with any siRNA)
SEQ ID NO: 4853: siRNA targeting ATP5B (chain 1 TATACCAGCGCTACCTTAGAGGTGG; chain 2 UAUACCAGCGCUACCUUAGAGGUGG; Both strands are one antisense strand in DNA/RNA notation, chemistry not given here, further chemistry not given here; one strand in two spellings)	+ (inhibits by at least 50%)
SEQ ID NO: 4819: siRNA targeting PFKL (chain 1 TAGTAGTCATGGCACTTCTCGTTCC; chain 2 UAGUAGUCAUGGCACUUCUCGUUCC; chemistry not given here; one strand in two spellings)	− (no growth inhibition with any siRNA)
SEQ ID NO: 4860: siRNA targeting SLC25A5 (ANT2) (chain 1 ATGCCAGATTCCCTGCAAAGTAGCG; chain 2 AUGCCAGAUUCCCUGCAAAGUAGCG; Both strands are one antisense strand in DNA/RNA notation, chemistry not given here, further chemistry not given here; one strand in two spellings)	+ (inhibits by at least 50%)
SEQ ID NO: 4875: siRNA targeting CTPS (chain 1 AATAACACACACTTGAGGTTCCAGG; chain 2 AAUAACACACACUUGAGGUUCCAGG; Both strands are one antisense strand in DNA/RNA notation, chemistry not given here, further chemistry not given here; one strand in two spellings)	++ (inhibits by at least 75%)
SEQ ID NO: 4855: siRNA targeting FASN (chain 1 TTGGAAGGCACATCCCAGAGGAAGT; chain 2 UUGGAAGGCACAUCCCAGAGGAAGU; Both strands are one antisense strand in DNA/RNA notation, chemistry not given here, further chemistry not given here; one strand in two spellings)	+ (inhibits by at least 50%)
SEQ ID NO: 5001: siRNA targeting DPYD (chain 1 GCTAGCATTATGTGCAGTTACAATA; chain 2 GCUAGCAUUAUGUGCAGUUACAAUA; chemistry not given here; one strand in two spellings)	− (no growth inhibition with any siRNA)
SEQ ID NO: 4995: siRNA targeting DGUOK (chain 1 CCTCATGAGAGAGGTAAACACCTTT; chain 2 CCUCAUGAGAGAGGUAAACACCUUU; chemistry not given here; one strand in two spellings)	− (no growth inhibition with any siRNA)
SEQ ID NO: 4821: siRNA targeting PRPS1 (chain 1 AATTGTCATTGATTTCGCCACAACC; chain 2 AAUUGUCAUUGAUUUCGCCACAACC; chemistry not given here; one strand in two spellings)	− (no growth inhibition with any siRNA)

same assay, conditions: A549 cells, 10 nM siRNA, DNA content 96 hours after transfection, transporter gene targets

Substance	Growth Inhibition in A549 cells by 10 nM siRNA
SEQ ID NO: 4941: siRNA targeting ATP2B2 (PMCA2) (chain 1 ATCTGTGTCTGGATCCGATTCAGGC; chain 2 AUCUGUGUCUGGAUCCGAUUCAGGC; chemistry not given here; one strand in two spellings)	+ (inhibits by at least 50%)
SEQ ID NO: 4945: siRNA targeting ATP2B3 (PMCA3) (chain 1 AATGTGTCCATGATCAAGTTCACCC; chain 2 AAUGUGUCCAUGAUCAAGUUCACCC; chemistry not given here; one strand in two spellings)	+ (inhibits by at least 50%)
